Assays:
[1] = target: recombinant BACE1 protein (Homo sapiens, UniProt P56817); test: Biochemical FRET based assay; conditions: recombinant BACE1 1 μg/ml, 120 min, pH 5.0; for IC50: read-out: Biochemical FRET based assay pIC50 (converted)
From the text: Biochemical FRET Based Assay
This assay is a Fluorescence Resonance Energy Transfer Assay (FRET) based assay. The substrate for this assay is an APP derived 13 amino acids peptide that contains the ‘Swedish’ Lys-Met/Asn-Leu mutation of the amyloid precursor protein (APP) β-secretase cleavage site. This substrate also contains two fluorophores: (7-methoxycoumarin-4-yl)acetic acid (Mca) is a fluorescent donor with excitation wavelength at 320 nm and emission at 405 nm and 2,4-Dinitrophenyl (Dnp) is a proprietary quencher acceptor. […] Upon cleavage by BACE1, the fluorophore Mca is separated from the quenching group Dnp, restoring the full fluorescence yield of the donor. The increase in fluorescence is linearly related to the rate of proteolysis (Koike H et al. J. Biochem. 1999, 126, 235-242). Briefly in a 384-well format recombinant BACE1 protein in a final concentration of 1 μg/ml is incubated for 120 min at room temperature with 10 μm substrate in incubation buffer (40 mM Citrate buffer pH 5.0, 0.04% PEG, 4% DMSO) in the absence or presence of compound. Next the amount of proteolysis is directly measured by fluorescence measurement at T=0 and T=120 (excitation at 320 nm and emission at 405 nm).

[2] = tested on: Aβ42 produced and secreted into the medium of human neuroblastoma SKNBE2 cells; test: Cellular αlisa assay in SKNBE2 cells, Aβ42; format: cell-based; conditions: SKNBE2 cells expressing hAPP695, 18 hours incubation; for IC50: Homo sapiens, SKNBE2, 18 h, read-out: Cellular αlisa assay in SKNBE2 cells Aβ42 pIC50 (converted)
Procedure: (§1) Cellular αlisa Assay in SKNBE2 Cells
(§2) In two αlisa assays the levels of Aβtotal and Aβ42 produced and secreted into the medium of human neuroblastoma SKNBE2 cells are quantified. The assay is based on the human neuroblastoma SKNBE2 expressing the wild type Amyloid Precursor Protein (hAPP695). The compounds are diluted and added to these cells, incubated for 18 hours and then measurements of Aβ42 and Aβtotal are taken. Aβtotal and Aβ42 are measured by sandwich αlisa. αlisa is a sandwich assay using biotinylated antibody AbN/25 attached to streptavidin coated beads and antibody Ab4G8 or cAb42/26 conjugated acceptor beads for the detection of Aβtotal and Aβ42 respectively. In the presence of Aβtotal or Aβ42, the beads come into close proximity. The excitation of the Donor beads provokes the release of singlet oxygen molecules that triggers a cascade of energy transfer in the Acceptor beads, resulting in light emission. Light emission is measured after 1 hour incubation (excitation at […] and emission at 615 nm).
(§3) A best-fit curve is fitted by a minimum sum of squares method to the plot of % Controlmin versus compound concentration.

[3] = tested on: Aβtotal produced and secreted into the medium of human neuroblastoma SKNBE2 cells; test: Cellular αlisa assay in SKNBE2 cells, Aβtotal; format: cell-based; conditions: SKNBE2 cells expressing hAPP695, 18 hours incubation; for IC50: Homo sapiens, SKNBE2, 18 h, read-out: Cellular αlisa assay in SKNBE2 cells Aβtotal pIC50 (converted)
Procedure: as §1, §2, §3

[4] = tested on: brain levels of soluble Aβ42; test: In vivo efficacy: brain Aβ42 lowering (ELISA); parameters: species or system mouse
From the text: (§4) To determine whether acute administration of an Aβ42 peptide lowering agent would reduce Aβ peptide levels in vivo, non-transgenic rodents, e.g. mice or rats were used. Animals treated with the Aβ peptide lowering agent were examined and compared to those untreated or treated with vehicle and brain levels of soluble Aβ42 and total Aβ were quantitated by standard techniques, for example, using ELISA. Treatment periods varied from hours (h) to days and were adjusted based on the results of the Aβ42 lowering once a time course of onset of effect could be established.
(§5) A typical protocol for measuring Aβ42 lowering in vivo is shown but it is only one of many variations that could be used to optimize the levels of detectable Aβ. For example, Aβ peptide lowering compounds were formulated in 20% hydroxypropyl β cyclodextrin. The Aβ peptide lowering agents were administered as a single oral dose (p.o.) or a single subcutaneous dose (s.c.) to overnight fasted animals. After a certain time, usually 2 or 4 h (as indicated in Table 7), the animals were sacrificed and Aβ42 levels were analysed.
(§6) Blood was collected by decapitation and exsanguinations in EDTA-treated collection tubes. Blood was centrifuged at 1900 g for 10 minutes (min) at 4° C. and the plasma recovered and flash frozen for later analysis. The brain was removed from the cranium and hindbrain. The cerebellum was removed and the left and right hemisphere were separated. The left hemisphere was stored at −18° C. for quantitative analysis of test compound levels. The right hemisphere was rinsed with phosphate-buffered saline (PBS) buffer and immediately frozen on dry ice and stored at −80° C. until homogenization for biochemical assays.
(§7) Mouse brains from non-transgenic animals were resuspended in 8 volumes of 0.4% DEA (diethylamine)/50 mM NaCl containing protease inhibitors (Roche-11873580001 or 04693159001) per gram of tissue, e.g. for 0.158 g brain, add 1.264 ml of 0.4% DEA. All samples were homogenized in the FastPrep-24 system (MP Biomedicals) using lysing matrix D (MPBio #6913-100) at 6 m/s for 20 seconds. Homogenates were centrifuged at 221.300×g for 50 min. The resulting high speed supernatants were then transferred to fresh eppendorf tubes. Nine parts of supernatant were neutralized with 1 part 0.5 M Tris-HCl pH 6.8 and used to quantify Aβtotal and Aβ42.
(§8) To quantify the amount of Aβtotal and Aβ42 in the soluble fraction of the brain homogenates, Enzyme-Linked-Immunosorbent-Assays were used. Briefly, the standards (a dilution of synthetic Aβ1-40 and […], Bachem) were prepared in 1.5 ml Eppendorf tube in Ultraculture, with final concentrations ranging from 10000 to 0.3 pg/ml. The samples and standards were co-incubated with HRPO-labelled N-terminal antibody for Aβ42 detection and with the biotinylated mid-domain antibody 4G8 for Aβtotal detection. 50 μl of conjugate/sample or conjugate/standards mixtures were then added to the antibody-coated plate (the capture antibodies selectively recognize the C-terminal end of Aβ42, antibody JRF/cAβ42/26, for Aβ42 detection and the N-terminus of Aβ, antibody JRF/rAβ/2, for Aβtotal detection). The plate was allowed to incubate overnight at 4° C. in order to allow formation of the antibody-amyloid complex. Following this incubation and subsequent wash steps the ELISA for Aβ42 quantification was finished by addition of Quanta Blu fluorogenic peroxidase substrate according to the manufacturer's instructions (Pierce Corp., Rockford, Il.). A reading was performed after 10 to 15 min (excitation 320 nm/emission 420 nm).
In this model at least 20% Aβ42 lowering compared to untreated animals would be advantageous.

brain levels of total Aβ = test: In vivo efficacy: brain Aβtotal lowering (ELISA); parameters: species or system mouse
From the text: as §4, §5, §6, §7, §8
For Aβtotal detection, a Streptavidine-Peroxidase-Conjugate was added, followed 60 min later by an additional wash step and addition of Quanta Blu fluorogenic peroxidase substrate according to the manufacturer's instructions (Pierce Corp., Rockford, Il.). A reading was performed after 10 to 15 min (excitation 320 nm/emission 420 nm).

[5] = 10 mg/kg p.o., 4 h. after administration
[6] = 5 mg/kg p.o., 4 h. after administration
[7] = 30 mg/kg p.o., 4 h. after administration
[8] = 100 mg/kg s.c., 4 h. after administration
[9] = 30 mg/kg p.o., 2 h after administration

Chain of recombinant BACE1 protein (P56817 46-501): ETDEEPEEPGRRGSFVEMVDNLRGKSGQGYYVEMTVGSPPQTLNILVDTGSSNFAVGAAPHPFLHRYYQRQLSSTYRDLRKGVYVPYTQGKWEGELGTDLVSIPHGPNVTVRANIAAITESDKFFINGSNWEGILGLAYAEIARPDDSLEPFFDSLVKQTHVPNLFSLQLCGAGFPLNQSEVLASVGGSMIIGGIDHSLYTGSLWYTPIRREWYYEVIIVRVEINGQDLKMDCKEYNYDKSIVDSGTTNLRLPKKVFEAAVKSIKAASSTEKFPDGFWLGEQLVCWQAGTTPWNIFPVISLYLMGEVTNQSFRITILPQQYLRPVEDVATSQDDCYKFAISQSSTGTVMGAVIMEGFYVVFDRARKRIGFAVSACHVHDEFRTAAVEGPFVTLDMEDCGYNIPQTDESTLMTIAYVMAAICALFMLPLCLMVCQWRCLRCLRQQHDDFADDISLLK

| SMILES | IC50 [1] | IC50 [2] | IC50 [3] | Aβ42 (% Ctrl)_Mean [4, 5] | Aβtotal (% Ctrl)_Mean (brain levels of total Aβ; [5]) | Aβ42 (% Ctrl)_Mean [4, 7] | Aβtotal (% Ctrl)_Mean (brain levels of total Aβ; [7]) | Cellular αlisa assay in SKNBE2 cells Aβ42 pIC50 [2] | Cellular αlisa assay in SKNBE2 cells Aβtotal pIC50 [3] | further results |
| --- | --- | --- | --- | --- | --- | --- | --- | --- | --- | --- |
| COc1cnc(C(=O)Nc2ccc(F)c([C@]3(C)Cn4nc(C)c(F)c4C(N)=N3)c2)cn1 [Compound 29, (R)-5-methoxy-pyrazine-2-carboxylic acid [3-(4-amino-3-fluoro-2,6-dimethyl-6,7-dihydro-pyrazolo[1,5-a]pyrazin-6-yl)-4-fluoro-phenyl]-amide] | 0.0813 µM | 0.0162 µM | 0.017 µM | 59 % Ctrl | 58 % Ctrl | – | – | – | – | – |
| C[C@@]1(c2cc(NC(=O)c3ccc(F)cn3)ccc2F)Cn2nc(C#N)cc2C(N)=N1 [Compound 24, (R)-5-fluoro-pyridine-2-carboxylic acid [3-(4-amino-2-cyano-6-methyl-6,7-dihydro-pyrazolo[1,5-a]pyrazin-6-yl)-4-fluoro-phenyl]-amide] | 0.0324 µM | 0.00331 µM | 0.00389 µM | – | – | 16 % Ctrl | 31 % Ctrl | – | – | Aβ42 (% Ctrl)_Mean [4, 6]: 66 % Ctrl; Aβtotal (% Ctrl)_Mean (brain levels of total Aβ; [6]): 59 % Ctrl |
| COc1cnc(C(=O)Nc2ccc(F)c([C@]3(C)Cn4nc(C#N)cc4C(N)=N3)c2)cn1 [Compound 23, (R)-5-methoxy-pyrazine-2-carboxylic acid [3-(4-amino-2-cyano-6-methyl-6,7-dihydro-pyrazolo[1,5-a]pyrazin-6-yl)-4-fluoro-phenyl]-amide] | 0.0398 µM | 0.00178 µM | 0.00195 µM | 45 % Ctrl | 39 % Ctrl | – | – | – | – | – |
| CC1(c2cccc(NC(=O)c3ccc(C#N)cn3)c2)Cn2nccc2C(N)=N1 (single isomer, unassigned) [Compound 7, (R*)-5-cyano-pyridine-2-carboxylic acid [3-(4-amino-6-methyl-6,7-dihydro-pyrazolo[1,5-a]pyrazin-6-yl)-phenyl]-amide] | – | – | – | – | – | 88 % Ctrl | 101 % Ctrl | 8.66 | 8.69 | – |
| C[C@@]1(c2cc(NC(=O)c3ccc(F)cn3)ccc2F)Cn2nc(C(F)F)cc2C(N)=N1 [Compound 27, (R)-5-fluoro-pyridine-2-carboxylic acid [3-(4-amino-2-difluoromethyl-6-methyl-6,7-dihydro-pyrazolo[1,5-a]pyrazin-6-yl)-4-fluoro-phenyl]-amide] | 0.0603 µM | 0.00708 µM | 0.00676 µM | 55 % Ctrl | 61 % Ctrl | – | – | – | – | – |
| CC1(c2cccc(NC(=O)c3ncc(Cl)cc3Cl)c2)Cn2nc(C(F)(F)F)cc2C(N)=N1 (single isomer, unassigned) [Compound 11, (R*)-3,5-dichloro-pyridine-2-carboxylic acid [3-(4-amino-6-methyl-2-trifluoromethyl-6,7-dihydro-pyrazolo[1,5-a]pyrazin-6-yl)-phenyl]-amide] | 0.0282 µM | – | – | – | – | 89 % Ctrl | 84 % Ctrl | 7.94 | 8.01 | – |
| CC1(c2cc(NC(=O)c3ccc(F)cn3)ccc2F)Cn2ncc(F)c2C(N)=N1 (stereo not shown) [Compound 33] | – | – | – | – | – | – | – | 8.09 | 8.14 | Biochemical FRET based assay pIC50 [1]: 7.19; Aβ42 (% Ctrl)_Mean [4, 8]: 49 % Ctrl; Aβtotal (% Ctrl)_Mean (brain levels of total Aβ; [8]): 20 % Ctrl |
| COc1cnc(C(=O)Nc2ccc(F)c([C@]3(C)Cn4nc(C(F)F)cc4C(N)=N3)c2)cn1 [Compound 28, (R)-5-methoxy-pyrazine-2-carboxylic acid [3-(4-amino-2-difluoromethyl-6-methyl-6,7-dihydro-pyrazolo[1,5-a]pyrazin-6-yl)-4-fluoro-phenyl]-amide] | 0.0692 µM | 0.00525 µM | 0.00631 µM | 39 % Ctrl | 50 % Ctrl | – | – | – | – | – |
| COc1cnc(C(=O)Nc2cccc(C3(C)Cn4nc(C(F)(F)F)cc4C(N)=N3)c2)cn1 (single isomer, unassigned) [Compound 32] | – | – | – | – | – | – | – | 7.76 | 7.84 | Biochemical FRET based assay pIC50 [1]: 7.20; Aβ42 (% Ctrl)_Mean [4, 9]: 53 % Ctrl; Aβtotal (% Ctrl)_Mean (brain levels of total Aβ; [9]): 58 % Ctrl |
